From patent US8114641B2, “Methylbutanol as an advanced biofuel” (Synthetic Genomics, Inc., priority 2007, dated 2012)
Like-named read-outs stand apart in the source and are kept apart here.

Tests used:
[1] = based on literature review; cited from earlier work
[2] = Physical properties of alcohol fuels and gasoline; format: physicochemical
[3] = for Energy Content / Pump Octane (R + M)/2: 10% blend in gasoline; for Pump Octane (R + M)/2: RBOB with Pump Octane 80.85 and RVP 7.37; for Reid Vapor Pressure: measured with 9.5% volumetric blend in RBOB
[4] = Fuel properties of the neat fuel; details: for Pump Octane (R + M)/2: extrapolated from tests on blended fuels (blending octanes)
[5] = Ether fuel testing (ULSD and hexadecane blends, neat ether); format: physicochemical
[6] = Endpoint assay for acetolactate synthase activity with pyruvate as substrate; format: biochemical; details: colorimetric detection at 546 nm, expressed in yeast
Protocol: FIG. 23 (a-d.) Endpoint assays for acetolactate synthase activity were carried out using pyruvate as substrate. The resulting acetolactate was converted to […] under acidic conditions. Acetone was reacted with α-naphtha for colorimetric detection at 546 nm. […] The reaction was only moderately subject to feedback inhibition by leucine, isoleucine and valine (b, c and d) which could be due to longer reaction times.

[7] = Keto acid decarboxylase activity on pyruvate, crude extracts; format: biochemical; details: crude extract, S. cerevisiae PDC1 deletion host; sigmoidal curves
Protocol: (§1) The Lactococcus lactis KdcA and S. cerevisiae and P. stipitis PDCs were cloned into yeast expression vector p415 under the control of TEF promoter. The host strain was a PDC1 deletion strain. Crude extracts were prepared for enzymatic assays by incubating cell pellet with CelLytic (Sigma), followed by bead beating. The decarboxylase reaction was performed in 100 mM Citrate Phosphate buffer with 1 mM Thiamine diphosphate, 1 mM MgCl2 and 50 μM to 20 mM aldehyde. The assay was coupled to an alcohol dehydrogenase which enabled continuous monitoring of NADH or NADPH oxidation at 340 nm.
Pyruvate is the target for multiple enzymes and a decarboxylation of the compound can lead to the production of acetaldehyde and subsequently ethanol. To prevent decarboxylation of pyruvate and increase 2-MBO production, a keto acid decarboxylase with a very high Km for pyruvate is ideal. […] The kinetic curves obtained with pyruvate as substrate were sigmoidal. This could be due to the fact that there are multiple enzymes in the crude extract with different Km for pyruvate. The final curve is therefore the superposition of individual curves. Absolute Km values […]. (FIG. 26.)

[8] = Keto acid decarboxylase activity on 2-keto butyrate, NADH dependent coupled assay with yeast ADH1; format: biochemical
Protocol: as §1
NADH dependent coupled assays with yeast ADH1 were carried out to determine the decarboxylase activity of yeast and heterologous enzymes on the substrate 2 keto butyrate (2KB). 2KB is an intermediate in the production of 2-methylbutanol. A high decarboxylase activity on 2KB can lead to its conversion to propanal and reduce the yield of 2-MBO. […] (See FIG. 25 a-g.) The enzyme with the lowest Km for 2-ketobutyrate is yeast PDC1 and therefore the corresponding gene needs to be deleted in the 2-MBO production strain (data not shown).

[9] = Keto acid decarboxylase activity on 2-keto-3-methylvalerate, PDC/KDC-ADH6 coupled assay with crude extracts; format: biochemical; details: for Km: enzyme expressed from p415 TEF in S. cerevisiae PDC1 deletion strain, read-out: Km 2 keto 3 methyl valerate
Protocol: as §1
The substrate specificity of the crude extract overexpressing different PDC/Kdcs was tested with a broad range of aldehydes. This included acetaldehyde, butyraldehyde and 2-methylbutyraldehyde. The concentration of the aldehydes was varied from 50 μM to 20 mM to determine the Km and Vmax values.
2-keto-3-methylvalerate (2K3MV) was tested for decarboxylation and subsequent reduction using PDC/KDC-ADH6 coupled assays.

[10] = Enzyme assays of overexpressed ADH6 and ADH7 with crude extracts; format: biochemical; details: NADPH dependent
Protocol: Yeast ADH6 and ADH7 have been reported as broad substrate specificity alcohol dehydrogenases. These enzymes were therefore overexpressed in S. cerevisiae under the control of TEF promoter and enzyme assays were carried out with crude extracts. Both ADH6 and ADH7 were active on 2-methylbutanal and were NADPH dependent reductases.

[11] = Aldehyde reductase assay of purified ADH6 on 2-methyl butyraldehyde; format: biochemical
Protocol: Enzyme assays for aldehyde reductase activity were carried out in 100 mM citrate phosphate buffer pH6.2, 0.5 mM NADPH and 0.05 to 20 mM substrate (acetaldehyde or 2-methylbutanal). The reaction was monitored for 5 minutes at 340 nm for oxidation of NADPH to NADP+.

[12] = crude extract, S. cerevisiae PDC1 deletion host

In the case of CCC(C)CO (stereo not drawn) [2-MBO, 2-methyl-1-butanol], the “Fuel Solubility in Water” value [1] is given as 3 wt %, the “Water Solubility in Fuel” value [1] is given as 9 wt % and the “Boiling Point, max” value [2] is given as 130 °C. For the same molecule, the “Flash Point, min” value [2] was 43 °C, the “Freezing Point, max” value [2] was −70 °C and the “Energy Content” value [3] was 113,963 BTU/gal. For the same molecule, the “Pump Octane (R + M)/2” value [3] was 83.0, the “Reid Vapor Pressure” value [3] was ~7^B psi and the “Energy Content” value [4] was 113,627 BTU/gal. The “Reid Vapor Pressure” value [4] was 2.3 psi and the “Pump Octane (R + M)/2” value [4] was 102.0.

For CCC(C)COCC(C)CC (stereo not drawn) [2MBO-ether, 2-methyl-1-(2-methylbutoxy)butane], the Flash [5] was 118 ° F and the “Solubility in Water” value [5] was <500 ppm.

For CC(C)CCO [3-MBO, 3-methyl-1-butanol], the “Fuel Solubility in Water” value [1] is given as 2 wt %, the “Water Solubility in Fuel” value [1] is given as 9 wt % and the “Boiling Point, max” value [2] is given as 130 °C. The “Flash Point, min” value [2] was 43 °C, the “Freezing Point, max” value [2] was −117 °C and the “Energy Content” value [3] was 113,824 BTU/gal. The “Pump Octane (R + M)/2” value [3] was 82.0, the “Reid Vapor Pressure” value [3] was ~7^B psi and the “Energy Content” value [4] was 112,240 BTU/gal. For the same molecule, the “Reid Vapor Pressure” value [4] was 2.3 psi and the “Pump Octane (R + M)/2” value [4] was 101.0.

CCCCCCCCCCCCCCCC [Hexadecane, reference compound] gave a wear scar diameter [5] of 534 µm.

B1: E. coli ilvG: Acetolactate synthase II, large subunit [Escherichia coli], SEQ ID NO: 39 (protein, listed as Escherichia coli)
chain: MNGAQWVVHALRAQGVNTVFGYPGGAIMPVYDALYDGGVEHLLCRHEQGAAMAAIGYARATGKTGVCIATSGPGATNLITGLADALLDSIPVVAITGQVSAPFIGTDAFQEVDILGLSLACTKHSFLVQSLEELPRIMAEAFDVASSGRPGPVLVDIPKDIQLASGDLEPWFTTVENEVTFPHAEVEQARQMLAKAQKPMLYVGGGVGMAQAVSALREFLAATKMPATCTLKGLGAVEADYPYYLGMLGMHGTKAANFAVQECDLLIAVGARFDDRVTGKLNTFAPHASVIHMDIDPAEMNKLRQAHVALQGDLNALLPALQQPLNINDWQQYCAQLRDEHTWRYDHPGDAIYAPLLLKQLSDRKPADCVVTTDVGQHQMWAAQHIAHTRPENFITSSGLGTMGFGLPAAVGAQVARPNDTVVCISGDGSFMMNVQELGTVKRKQLPLKIVLLDNQRLGMVRQWQQLFFQERYSETTLTDNPDFLMLASAFGIPGQHITRKDQVEAALDTMLNSDGPYLLHVSIDELENVWPLVPPGASNSEMLEKLS
With B1 the “acetolactate synthase activity on pyruvate” value [6] was “minimum activity”.

B2: P. stipitis PDC 3/6: Pyruvate decarboxylase (PDC6) (PDC3) [Pichia stipitis], SEQ ID NO: 53 (protein, listed as Pichia stipitis)
chain: MTPVQETIRLPGTSSPTVPENVTLGEYLFLRISQANPKLRSIFGIPGDFNVDLLEHLYSPVVAGRDIKFIGLCNELNGAYTADGYSRAIGGLSTFISTFGVGELSAINGIAGSFAEFSPVLHIVGTTSLPQRDHAINGSDVRNHHHLIQNKNPLCQPNHDVYKKMIEPISVIQESLDSDLQRNMEKIDRVLVKILQESRPGYLFIPCDITNLIVPSYRLYETPLPLEIQLTTSGVEVLEDVVDAILFRLYKSKNPSLLSDCLTTRFNLQDKLNTLVAKLPSNFVKLFSTNMARNIDESLSNFVGLYFGIGSSSKEVSRQLERNTDFLINLGYFNAETTTAGYSNDFSNIEEYIEINPDYIKVNEHIINIKNPESGKRLFSMGQLLDALLFKLDLNKIENINNNNISYKFFPPTLYEQDNNTDYIPQTKLVDYLNENLQPGDLLVMDTMSFCFALPDIMLPQGVQLLTQNYYGSIGYALPSTFGATMAVNDLGSDRRIILIEGDGAAQMTIQELSSFLKYKEFLPNMPKIFLINNDGYTVERMIKGPTRSYNDINGEWSWTQLLGVFGDKEQKYHSTALLRNVNEFNKYFEFQRQTDNSKLEFIELIAGKYDCPLRFSEMFCKK
In the case of B2, the “Vmax Pyruvate” value [7] is reported as 12624 µM/min/mg, the “Vmax 2 keto butyrate” value [8, 12] is reported as 5389 µM/min/mg and the Km ([8]; crude extract, enzyme expressed from p415 TEF in S. cerevisiae PDC1 deletion strain) is reported as 6510 µM. For the same molecule, the “Vmax on 2 keto butyrate, fold higher than KDCA” value ([8]; relative to L. lactis KdcA) was “about 3.4 fold”, the “Vmax 2 keto 3 methyl valerate” value [9, 12] was 3359. uM/min/mg and the Km ([9]; crude extract, listed as P. stipitis PDC3/6) was 840 µM. For the same molecule, the Km ([9]; crude extract) was 840 µM and the “Vmax on 2-keto-3-methylvalerate, fold higher than KdcA” value ([9]; relative to L. lactis KdcA) was 3.4 fold.

B3: E. coli ilvB: Acetolactate synthase I, large subunit [Escherichia coli], SEQ ID NO: 37 (protein, listed as Escherichia coli)
chain: MASSGTTSTRKRFTGAEFIVHFLEQQGIKIVTGIPGGSILPVYDALSQSTQIRHILARHEQGAGFIAQGMARTDGKPAVCMACSGPGATNLVTAIADARLDSIPLICITGQVPASMIGTDAFQEVDTYGISIPITKHNYLVRHIEELPQVMSDAFRIAQSGRPGPVWIDIPKDVQTAVFEIETQPAMAEKAAAPAFSEESIRDAAAMINAAKRPVLYLGGGVINAPARVRELAEKAQLPTTMTLMALGMLPKAHPLSLGMLGMHGVRSTNYILQEADLLIVLGARFDDRAIGKTEQFCPNAKIIHVDIDRAELGKIKQPHVAIQADVDDVLAQLIPLVEAQPRAEWHQLVADLQREFPCPIPKACDPLSHYGLINAVAACVDDNAIITTDVGQHQMWTAQAYPLNRPRQWLTSGGLGTMGFGLPAAIGAALANPDRKVLCFSGDGSLMMNIQEMATASENQLDVKIILMNNEALGLVHQQQSLFYEQGVFAATYPGKINFMQIAAGFGLETCDLNNEADPQASLQEIINRPGPALIHVRIDAEEKVYPMVPPGAANTEMVGE
In the case of B3, the “acetolactate synthase activity on pyruvate” value [6] is reported as “highest activity”.

B4: ADH7: Saccharomyces cerevisiae NADPH-dependent alcohol dehydrogenase ADH7, SEQ ID NO: 72 (protein, listed as Saccharomyces cerevisiae)
chain: MLYPEKFQGIGISNAKDWKHPKLVSFDPKPFGDHDVDVEIEACGICGSDFHIAVGNWGPVPENQILGHEIIGRVVKVGSKCHTGVKIGDRVGVGAQALACFECERCKSDNEQYCTNDHVLTMWTPYKDGYISQGGFASHVRLHEHFAIQIPENIPSPLAAPLLCGGITVFSPLLRNGCGPGKRVGIVGIGGIGHMGILLAKAMGAEVYAFSRGHSKREDSMKLGADHYIAMLEDKGWTEQYSNALDLLVVCSSSLSKVNFDSIVKIMKIGGSIVSIAAPEVNEKLVLKPLGLMGVSISSSAIGSRKEIEQLLKLVSEKNVKIWVEKLPISEEGVSHAFTRMESGDVKYRFTLVDYDKKFHK
In the case of B4, the “activity on 2-methylbutanal” value [10] is reported as “active”.

B5: ADH6: Saccharomyces cerevisiae alcohol dehydrogenase ADH6, SEQ ID NO: 66 (protein, listed as Saccharomyces cerevisiae)
chain: MSYPEKFEGIAIQSHEDWKNPKKTKYDPKPFYDHDIDIKIEACGVCGSDIHCAAGHWGNMKMPLVVGHEIVGKVVKLGPKSNSGLKVGQRVGVGAQVFSCLECDRCKNDNEPYCTKFVTTYSQPYEDGYVSQGGYANYVRVHEHFVVPIPENIPSHLAAPLLCGGLTVYSPLVRNGCGPGKKVGIVGLGGIGSMGTLISKAMGAETYVISRSSRKREDAMKMGADHYIATLEEGDWGEKYFDTFDLIVVCASSLTDIDFNIMPKAMKVGGRIVSISIPEQHEMLSLKPYGLKAVSISYSALGSIKELNQLLKLVSEKDIKIWVETLPVGEAGVHEAFERMEKGDVRYRFTLVGYDKEFSD
For B5, the “activity on 2-methylbutanal” value [10] was “active”, the Km ([11]; purified His-tagged enzyme, pH6.2, 0.5 mM NADPH) was 360 µM and the “Vmax (cofactor oxidation rate) for 2-methyl butyraldehyde, fold higher than acetaldehyde” value ([11]; purified enzyme) was 1.3 fold.
